Measured values from US9493483B2, “Benzo [C] isoxazoloazepine bromodomain inhibitors and uses thereof” (Constellation Pharmaceuticals, Inc., priority 2012, dated 2016).
Where two headings read alike, the source gives them in different places. Blank lines part the entries; values can stand above or below the molecule they belong to.

Legend:
[1] = test system: MYC mRNA in MV4:11 (AML) or Raji (Burkitt's lymphoma) cells; assay: cMyc RNA quantification assay (QuantiGene); assay type: cell-based; conditions: MV4:11 or Raji cells, 4 h; read-out: MYC Cellular EC50
Experimental: cMyc RNA Quantification Assay (QuantiGene® Assay):
MV4:11 (AML) or Raji (Burkitt's lymphoma) cells were seeded in a 96-well plate and incubated in the presence of various concentrations of compounds for 4 h. Relative mRNA levels were quantitated by using QuantiGene 2.0 assay (Affymetrix) according to the manufacturer's recommendation. Signals were detected by using an Envision plate reader (Perkin-Elmer). Biological duplicates were averaged and normalized to vehicle (DMSO) control to calculate percent MYC mRNA levels.

BRD4(BD1) = BRD4(BD1) (Homo sapiens (Human), UniProt O60885); assay: BRD4 AlphaLisa binding assay; conditions: BRD4(BD1) 30 nM, H4-tetraacetyl peptide 200 nM; read-out: AlphaScreen IC50
Experimental: IC50 Measurements for Inhibitors Using BRD4 AlphaLisa Binding Assay
His/Flag epitope tagged BRD4 BD142-168 was cloned, expressed and purified to homogeneity. BRD4 binding and inhibition was assessed by monitoring the engagement of biotinylated H4-tetraacetyl peptide (Millipore #12-379) with the target using the AlphaLisa technology (Perkin-Elmer). Specifically, in a 384 well ProxiPlate BRD4(BD1) (30 nM final) was combined with peptide (200 nM final) in 40 mM HEPES (pH 7.0), 40 mM NaCl, 1 mM DTT, 0.01% (w/v) BSA, and 0.008% (w/v) Brij-35 either in the presence of DMSO (final 1.2% DMSO) or compound dilution series in DMSO. After 20 minute incubation at room temperature Alpha streptavidin donor beads and AlphaLisa anti-Flag acceptor beads were added to a final concentration of 10 ug/mL each. After three hours equilibration plates were read on an Envision instrument and IC50s calculated using a four parameter non-linear curve fit.

[2] = test system: IL-6 secretion in LPS-stimulated THP-1 cells; assay: Cell-based IL-6 quantification assay (ELISA, Mesoscale); conditions: LPS 4 μg/mL, 16 h, read-out: IL-6 Cellular EC50
Experimental: Cell-Based IL-6 Quantification Assay (ELISA, Mesoscale Assay):
100,000 THP-1 cells were seeded in RPMI1640-10% FBS in 96-well plates. LPS (E. Coli Invitrogen) in RPMI-10% FBS at a final concentration of 4 μg/mL was added to the wells and the cells are then incubated in the presence of various concentrations of compounds for 16 h. Plates are spun ([…], 5 min), an aliquot of 25 uL supernatant is transferred in to an ELISA plate (Mesoscale technology, MSD) and the detection of IL-6 is performed using manufacturer's instructions. The amount of cells in each well is assessed using CellTiter-Glo® (Promega). The ratio of ELISA value/CellTiter-Glo value is used to calculate the percent of inhibition of IL-6 secretion.

[3] = test system: MV4-11 lymphoblast cell subcutaneous xenograft; assay: Tumor growth inhibition in MV4-11 subcutaneous xenograft mouse model; assay type: in vivo; conditions: female nude mice, all cohorts: 1.5-3 mg/kg SC BID/QD, 3-10 mg/kg PO QD (Table 3)
Experimental: This study investigated the effects of Compound 401 on tumor growth inhibition in an MV4-11 lymphoblast cell subcutaneous xenograft mouse model.
A total number of 120 female nude mice were purchased. These mice were allowed 3 days of acclimatization period before experiments started. The cell suspension was carried to the animal room in an ice box. Mice were implanted subcutaneously (s.c.) with 200 μL of 10×10^6 MV4-11 cells in 50% Matrigel in the right flank at the beginning of the study. All the mice were observed everyday to monitor the health and tumor size.
When tumors reached an average volume of 150-200 mm^3, 100 out of the 120 mice were selected based on their tumor volume and randomly assigned to 10 groups prior to dosing. Each group consisted of 10 tumor-bearing mice (n=10/group).
Tumor-bearing mice were treated with Compound 401 or vehicle, by subcutaneous injection (5 mL/kg) or oral dose (10 mL/kg) starting on the day after randomization for 29 days according to Table 3.
Mice were weighed at each dosing and recorded every day. Mice were observed closely for any overt signs of adverse, treatment-related side effects, which if any were recorded. […] Tumor size was measured three times a week in two dimensions using a caliper, and the tumor volume (V) was expressed in mm^3 using the formula: V=0.5 a×b^2 where a and b were the long and short diameters of the tumor, respectively. […]

OPM2 = assay: In vitro cancer cell line growth inhibition (GI50); assay type: cell-based; conditions: Homo sapiens, OPM-2; OPM2, Multiple myeloma, 72 hours, resazurin
Experimental: (§1) Method for GI50 Determination
(§2) Adherent cells were plated in 96-well plates and the following day compound titrations were added to the cells. Suspensions cells were plated directly in 96-well plates containing compound titrations. Compound titrations were comprised of 9 two-fold dilutions. Cells were incubated for 72 hours before analysis of viability with resazurin. Viability relative to DMSO treated cells was plotted to determine the absolute GI50 values.

THP-1 = assay: In vitro cancer cell line growth inhibition (GI50); assay type: cell-based; conditions: Homo sapiens; THP-1, AML, 72 hours, resazurin
Experimental: as §1, §2

OCI-LY-19 = assay: In vitro cancer cell line growth inhibition (GI50); assay type: cell-based; conditions: Homo sapiens, OCI-LY19; OCI-LY-19, DLBCL, 72 hours, resazurin
Experimental: as §1, §2

A2780 = assay: In vitro cancer cell line growth inhibition (GI50); assay type: cell-based; conditions: Homo sapiens; A2780, Ovarian, 72 hours, resazurin
Experimental: as §1, §2

SU-DHL-4 = assay: In vitro cancer cell line growth inhibition (GI50); assay type: cell-based; conditions: Homo sapiens; SU-DHL-4, DLBCL, 72 hours, resazurin
Experimental: as §1, §2

SU-DHL-10 = assay: In vitro cancer cell line growth inhibition (GI50); assay type: cell-based; conditions: Homo sapiens, SU-DHL10; SU-DHL-10, DLBCL, 72 hours, resazurin
Experimental: as §1, §2

H526 = assay: In vitro cancer cell line growth inhibition (GI50); assay type: cell-based; conditions: Homo sapiens, NCI-H526; H526, Lung, 72 hours, resazurin
Experimental: as §1, §2

KMS11 = assay: In vitro cancer cell line growth inhibition (GI50); assay type: cell-based; conditions: Homo sapiens, KMS-11; KMS11, Multiple myeloma, 72 hours, resazurin
Experimental: as §1, §2

MV4-11 = assay: In vitro cancer cell line growth inhibition (GI50); assay type: cell-based; conditions: Homo sapiens; MV4-11, AML, 72 hours, resazurin
Experimental: as §1, §2

HT = assay: In vitro cancer cell line growth inhibition (GI50); assay type: cell-based; conditions: Homo sapiens, DLBCL, 72 hours, resazurin
Experimental: as §1, §2

SU-DHL-6 = assay: In vitro cancer cell line growth inhibition (GI50); assay type: cell-based; conditions: Homo sapiens; SU-DHL-6, DLBCL, 72 hours, resazurin
Experimental: as §1, §2

DB = assay: In vitro cancer cell line growth inhibition (GI50); assay type: cell-based; conditions: Homo sapiens, DLBCL, 72 hours, resazurin
Experimental: as §1, §2

DOHH2 = assay: In vitro cancer cell line growth inhibition (GI50); assay type: cell-based; conditions: Homo sapiens, DOHH-2; DOHH2, DLBCL, 72 hours, resazurin
Experimental: as §1, §2

SU-DHL-5 = assay: In vitro cancer cell line growth inhibition (GI50); assay type: cell-based; conditions: Homo sapiens; SU-DHL-5, DLBCL, 72 hours, resazurin
Experimental: as §1, §2

SU-DHL-8 = assay: In vitro cancer cell line growth inhibition (GI50); assay type: cell-based; conditions: Homo sapiens; SU-DHL-8, DLBCL, 72 hours, resazurin
Experimental: as §1, §2

U2932 = assay: In vitro cancer cell line growth inhibition (GI50); assay type: cell-based; conditions: Homo sapiens; U2932, DLBCL, 72 hours, resazurin
Experimental: as §1, §2

A549 = assay: In vitro cancer cell line growth inhibition (GI50); assay type: cell-based; conditions: Homo sapiens; A549, Lung, 72 hours, resazurin
Experimental: as §1, §2

143B = assay: In vitro cancer cell line growth inhibition (GI50); assay type: cell-based; conditions: Homo sapiens, Osteosarcoma, 72 hours, resazurin
Experimental: as §1, §2

DLD-1 = assay: In vitro cancer cell line growth inhibition (GI50); assay type: cell-based; conditions: Homo sapiens; DLD-1, Colorectal, 72 hours, resazurin
Experimental: as §1, §2

WSU-DLCL-2 = assay: In vitro cancer cell line growth inhibition (GI50); assay type: cell-based; conditions: Homo sapiens, WSUDLCL2; WSU-DLCL-2, DLBCL, 72 hours, resazurin
Experimental: as §1, §2

H23 = assay: In vitro cancer cell line growth inhibition (GI50); assay type: cell-based; conditions: Homo sapiens, NCI-H23; H23, Lung, 72 hours, resazurin
Experimental: as §1, §2

ZR-75-1 = assay: In vitro cancer cell line growth inhibition (GI50); assay type: cell-based; conditions: Homo sapiens; ZR-75-1, Breast, 72 hours, resazurin
Experimental: as §1, §2

LP1 = assay: In vitro cancer cell line growth inhibition (GI50); assay type: cell-based; conditions: Homo sapiens, LP-1; LP1, Multiple myeloma, 72 hours, resazurin
Experimental: as §1, §2

KARPAS 422 = assay: In vitro cancer cell line growth inhibition (GI50); assay type: cell-based; conditions: Homo sapiens; KARPAS 422, DLBCL, 72 hours, resazurin
Experimental: as §1, §2

HT29 = assay: In vitro cancer cell line growth inhibition (GI50); assay type: cell-based; conditions: Homo sapiens, HT-29; HT29, Colorectal, 72 hours, resazurin
Experimental: as §1, §2

MOLM-13 = assay: In vitro cancer cell line growth inhibition (GI50); assay type: cell-based; conditions: Homo sapiens; MOLM-13, AML, 72 hours, resazurin
Experimental: as §1, §2

ML-2 = assay: In vitro cancer cell line growth inhibition (GI50); assay type: cell-based; conditions: Homo sapiens; ML-2, AML, 72 hours, resazurin
Experimental: as §1, §2

Structure (SMILES): Cc1noc2c1-c1ccc(-c3cnn(C)c3)cc1C(c1ccc(Cl)cc1)=N[C@H]2CC(N)=O [Compound 400, 2-((4S)-6-(4-chlorophenyl)-1-methyl-8-(1-trideuteromethyl-1H-pyrazol-4-yl)-4H-benzo[c]isoxazolo[4,5-e]azepin-4-yl)-^15N-acetamide]
EC50 [1]: 8 nM
IC50 (BRD4(BD1)): 18 nM
EC50 [2]: 5 nM

Structure (SMILES): Cc1noc2c1-c1ccc(-c3cnn(C)c3)cc1C(c1ccc(Cl)cc1)=N[C@H]2CC(=O)N(C)C [Compound 402]
EC50 [1]: 23 nM
IC50 (BRD4(BD1)): 13 nM
EC50 ([2]; Homo sapiens): 7 nM

Structure (SMILES): Cc1noc2c1-c1ccc(-c3cnn(C)c3)cc1C(c1ccc(Cl)cc1)=N[C@H]2CC(=O)O [Compound 405]
EC50 [1]: 833 nM
IC50 (BRD4(BD1)): 175 nM
EC50 ([2]; Homo sapiens): 420 nM

Structure (SMILES): Cc1noc(-c2ccc3c(c2)C(c2ccc(Cl)cc2)=N[C@@H](CC(N)=O)c2onc(C)c2-3)n1 [Compound 404, 2-((4S)-6-(4-chlorophenyl)-1-methyl-8-(3-methyl-1,2,4-oxadiazol-5-yl)-4H-benzo[c]isoxazolo[4,5-e]azepin-4-yl)acetamide]
EC50 [1]: 206 nM
IC50 (BRD4(BD1)): 270 nM
EC50 ([2]; Homo sapiens): 36 nM

More lines, main results first:

EC50 [1]: 36 nM
IC50 (BRD4(BD1)): 28 nM
EC50 ([2]; Homo sapiens): 29 nM
Structure (SMILES): Cc1ccc(-c2ccc3c(c2)C(c2ccc(Cl)cc2)=N[C@@H](CC(N)=O)c2onc(C)c2-3)cn1 [Compound 403]

EC50 [1]: 13 nM
IC50 (BRD4(BD1)): 14 nM
EC50 ([2]; Homo sapiens): 15 nM
GI50 (OPM2): 10 nM
GI50 (THP-1): 65 nM
GI50 (OCI-LY-19): 60 nM
GI50 (A2780): 90 nM
GI50 (SU-DHL-4): 150 nM
GI50 (SU-DHL-10): 100 nM
GI50 (H526): 10 nM
GI50 (KMS11): 100 nM
GI50 (MV4-11): 15 nM
GI50 (HT): 100 nM
GI50 (SU-DHL-6): 60 nM
GI50 (DB): 150 nM
GI50 (DOHH2): 60 nM
GI50 (SU-DHL-5): 325 nM
GI50 (SU-DHL-8): 100 nM
GI50 (U2932): 625 nM
GI50 (A549): 460 nM
GI50 (143B): 230 nM
GI50 (DLD-1): 480 nM
GI50 (WSU-DLCL-2): 45 nM
GI50 (H23): 210 nM
GI50 (ZR-75-1): 300 nM
GI50 (LP1): 5 nM
GI50 (KARPAS 422): 20 nM
GI50 (HT29): 200 nM
GI50 (MOLM-13): 90 nM
GI50 (ML-2): 60 nM
Structure (SMILES): Cc1noc2c1-c1ccc(-c3cnn(C)c3)cc1C(c1ccc(Cl)cc1)=N[C@H]2CC(N)=O [Compound 401, 2-((4S)-6-(4-Chlorophenyl)-1-methyl-8-(1-methyl-1H-pyrazol-4-yl)-4H-benzo[c]isoxazolo[4,5-e]azepin-4-yl)acetamide]
tumor volume reduction [3]: Statistically significant reductions in tumor volumes
